Laboratory results from US20120108501A1, “Protease Inhibitors” (priority 2009, published 2012).

Assay: Pharmacokinetics of released PEGylated protease inhibitor following P.O. administration of prodrugs in rats
Type: in vivo, male Sprague-Dawley rats
Set-up: AUCall Mean: concentration or dose not given beside the values; C24 Mean: unit not given here
Conditions: rats (n = 4-5); for C24 Mean: concentration at 24 hours
Protocol: Pharmacokinetic analysis of protease inhibitors described herein was conducted. To evaluate the pharmacokinetics of PEGylated protease inhibitor conjugates with releasable lipophilic attachments, test compounds were administered to male Sprague-Dawley rats.
At various times following test article administration, serial blood samples were collected from indwelling jugular vein catheters and transferred to micro-tubes containing 7.5 μL of 20% w/v K2EDTA as an anticoagulant. Following processing of the blood samples to plasma (10 minutes at 10000 rpm, Centrifuge Model: Kubota 3500), plasma concentrations of the test article or corresponding PEGylated molecule released from the test article was measured using LC-MS/MS methods. Pharmacokinetic parameters were estimated using noncompartmental methods.

[1] = mPEG5-atazanavir in plasma after PO administration of mPEG5-ATV or of the listed prodrug
[2] = mPEG6-atazanavir in plasma after PO administration of mPEG6-ATV or of the listed prodrug
[3] = mPEG3-atazanavir in plasma after PO administration of mPEG3-ATV or of the listed prodrug

| AUCall Mean [2] | Cmax Mean [2] | MRT last Mean [2] | Tmax Median [2] | Compound | other results |
| --- | --- | --- | --- | --- | --- |
| 216 ng·h/mL | 27.4 ng/mL | 11.0 h | 1.50 h | COCCOCCOCCOCCOCCOCCOC(=O)NC(C(=O)NC(Cc1ccccc1)C(CN(Cc1ccc(-c2ccccn2)cc1)NC(=O)C(NC(=O)OC)C(C)(C)C)OC(=O)C(CC(C)C)NC(=O)C(N)Cc1ccccc1)C(C)(C)C.Cl (stereo not drawn) [Phe-Leu-mPEG6-ATV, Phe-Leu-mPEG6-Atazanavir Hydrochloride] | – |
| 279 ng·h/mL | 27.0 ng/mL | 16.2 h | 2.00 h | COCCOCCOCCOCCOCCOCCOC(=O)N[C@H](C(=O)N[C@@H](Cc1ccccc1)[C@H](CN(Cc1ccc(-c2ccccn2)cc1)NC(=O)[C@@H](NC(=O)OC)C(C)(C)C)OC(=O)[C@H](Cc1ccccc1)NC(=O)[C@@H](N)Cc1ccccc1)C(C)(C)C.Cl [Phe-Phe-mPEG6-ATV, Phe-Phe-mPEG6-Atazanavir Hydrochloride] | – |
| 102 ng·h/mL | 7.06 ng/mL | 21.4 h | 3.25 h | COCCOCCOCCOCCOCCOCCOC(=O)NC(C(=O)NC(Cc1ccccc1)C(CN(Cc1ccc(-c2ccccn2)cc1)NC(=O)C(NC(=O)OC)C(C)(C)C)OC(=O)COCCOC(=O)C(Cc1ccccc1)NC(=O)C(N)Cc1ccccc1)C(C)(C)C (stereo not shown) [mPEG6-ATV-CME-Phe-Phe, mPEG6-atazanavir-ethoxy-CME-Phe-Phe] | – |
| 3.07 ng·h/mL | 0.634 ng/mL | 15.1 h | 1.00 h | CCNC(=O)OC(CN(Cc1ccc(-c2ccccn2)cc1)NC(=O)C(NC(=O)OC)C(C)(C)C)C(Cc1ccccc1)NC(=O)C(NC(=O)OCCOCCOCCOCCOCCOCCOC)C(C)(C)C (stereo not shown) [mPEG6-ATV-ethylcarbamate, mPEG6-Atazanavir-NH-ethyl carbamate] | – |
| 217 ng·h/mL | 8.86 ng/mL | 26.1 h | 24.0 h | COCCOCCOCCOCCOCCOCCOC(=O)N[C@H](C(=O)N[C@@H](Cc1ccccc1)[C@H](CN(Cc1ccc(-c2ccccn2)cc1)NC(=O)[C@@H](NC(=O)OC)C(C)(C)C)OC(=O)CNC(=O)[C@@H](N)Cc1ccccc1)C(C)(C)C.Cl [Phe-Gly-mPEG6-ATV, Phe-Gly-mPEG6-Atazanavir Hydrochloride] | – |
| 194 ng·h/mL | 5.11 ng/mL | 24.3 h | 7.00 h | COCCOCCOCCOCCOCCOCCOC(=O)NC(C(=O)NC(Cc1ccccc1)C(CN(Cc1ccc(-c2ccccn2)cc1)NC(=O)C(NC(=O)OC)C(C)(C)C)OC(=O)CNC(=O)C(N)C(C)C)C(C)(C)C.Cl (stereo not drawn) [Val-Gly-mPEG6-ATV, Val-GIy-mPEG6-Atazanavir Hydrochloride] | – |
| 207 ng·h/mL | 19.9 ng/mL | 10.3 h | 1.50 h | CCOC(=O)OC(CN(Cc1ccc(-c2ccccn2)cc1)NC(=O)C(NC(=O)OC)C(C)(C)C)C(Cc1ccccc1)NC(=O)C(NC(=O)OCCOCCOCCOCCOCCOCCOC)C(C)(C)C (stereo not shown) [mPEG6-ATV-Ethyl Carbonate, mPEG6-Atazanavir Ethyl Carbonate] | C24 Mean [2]: 4.39 |
| 78.1 ng·h/mL | 21.4 ng/mL | 5.01 h | 0.500 h | CCCCCC(=O)O[C@@H](CN(Cc1ccc(-c2ccccn2)cc1)NC(=O)[C@@H](NC(=O)OC)C(C)(C)C)[C@H](Cc1ccccc1)NC(=O)[C@@H](NC(=O)OCCOCCOCCOCCOCCOCCOC)C(C)(C)C [C5H11CO-mPEG6-ATV, C5H11CO-mPEG6-atazanavir] | – |
| 12.1 ng·h/mL | 1.23 ng/mL | 23.4 h | 6.13 h | COCCOCCOCCOCCOCCOCCOC(=O)NC(C(=O)NC(Cc1ccccc1)C(CN(Cc1ccc(-c2ccccn2)cc1)NC(=O)C(NC(=O)OC)C(C)(C)C)OP(=O)(O)O)C(C)(C)C (stereo not shown) [mPEG6-ATV-phosphate, mPEG6-atazanavir phosphate] | – |

Second part, the compound before the results:

| Compound | AUCall Mean [2] | Cmax Mean [2] | MRT last Mean [2] | Tmax Median [2] | other results |
| --- | --- | --- | --- | --- | --- |
| CCCCCC(=O)O[C@@H](CN(Cc1ccc(-c2ccccn2)cc1)NC(=O)[C@@H](NC(=O)OC)C(C)(C)C)[C@H](Cc1ccccc1)NC(=O)[C@@H](NC(=O)OCCOCCOCCOCCOCCOC)C(C)(C)C [C5H11CO-mPE5-ATV, C5H11CO-mPEG5-atazanavir] | – | – | – | – | AUCall Mean [1]: 23.7 ng·h/mL; Cmax Mean [1]: 7.38 ng/mL; MRT last Mean [1]: 2.42 h; Tmax Median [1]: 0.500 h |
| CCOCOC(CN(Cc1ccc(-c2ccccn2)cc1)NC(=O)C(NC(=O)OC)C(C)(C)C)C(Cc1ccccc1)NC(=O)C(NC(=O)OCCOCCOCCOCCOCCOCCOC)C(C)(C)C (stereo not shown) [Methyl ethyl ether mPEG6-ATV, mPEG6-Atazanavir Methyl Ethyl Ether] | 202 ng·h/mL | 38.3 ng/mL | 10.1 h | 2.00 h | C24 Mean [2]: 0.00 |
| CCOC(CC)OC(CN(Cc1ccc(-c2ccccn2)cc1)NC(=O)C(NC(=O)OC)C(C)(C)C)C(Cc1ccccc1)NC(=O)C(NC(=O)OCCOCCOCCOCCOCCOC)C(C)(C)C (mixture of isomers) [ATV-1-Ethoxy propoxy-mPEG5, atazanavir-1-ethoxypropoxy-mPEG5] | – | – | – | – | AUCall Mean [1]: 235 ng·h/mL; Cmax Mean [1]: 55.3 ng/mL; MRT last Mean [1]: 3.53 h; Tmax Median [1]: 1.00 h |
| COCCOCCOCCOCCOCCOC(=O)NC(C(=O)NC(Cc1ccccc1)C(CN(Cc1ccc(-c2ccccn2)cc1)NC(=O)C(NC(=O)OC)C(C)(C)C)OCOCCOC)C(C)(C)C (stereo not shown) [mPEG5-ATV-Methyl ethyl methyl ether, mPEG5-Atazanavir Methyl Ethyl Methyl Ether] | – | – | – | – | AUCall Mean [1]: 32.7 ng·h/mL; Cmax Mean [1]: 3.74 ng/mL; MRT last Mean [1]: 4.92 h; Tmax Median [1]: 2.00 h |
| CCCCCC(=O)O[C@@H](CN(Cc1ccc(-c2ccccn2)cc1)NC(=O)[C@@H](NC(=O)OC)C(C)(C)C)[C@H](Cc1ccccc1)NC(=O)[C@@H](NC(=O)OCCOCCOCCOC)C(C)(C)C [C5H11CO-mPEG3-ATV, C5H11CO-mPEG3-atazanavir] | – | – | – | – | AUCall Mean [3]: 33.9 ng·h/mL; Cmax Mean [3]: 7.51 ng/mL; MRT last Mean [3]: 2.78 h; Tmax* Median [3]: 2.00 h |
| CCCCC(=O)OC(CN(Cc1ccc(-c2ccccn2)cc1)NC(=O)C(NC(=O)OC)C(C)(C)C)C(Cc1ccccc1)NC(=O)C(NC(=O)OCCOCCOCCOCCOCCOCCOC)C(C)(C)C (stereo not shown) [C4H9CO-mPEG6-ATV, C4H9CO-mPEG6-atazanavir] | 36.5 ng·h/mL | 13.8 ng/mL | 1.14 h | 0.750 h | – |
| CCCCC(=O)O[C@@H](CN(Cc1ccc(-c2ccccn2)cc1)NC(=O)[C@@H](NC(=O)OC)C(C)(C)C)[C@H](Cc1ccccc1)NC(=O)[C@@H](NC(=O)OCCOCCOCCOCCOCCOC)C(C)(C)C [C4H9CO-PEG5-ATV, C4H9CO-mPEG5-atazanavir] | – | – | – | – | AUCall Mean [1]: 39.3 ng·h/mL; Cmax Mean [1]: 9.46 ng/mL; MRT last Mean [1]: 2.43 h; Tmax Median [1]: 0.750 h |
| mPEG5-atazanavir-ethoxy-CME-Leu-Leu [mPEG5ATV-Ethoxy-CM-Leu-Leu] | – | – | – | – | AUCall Mean [1]: 50.3 ng·h/mL; Cmax Mean [1]: 1.86 ng/mL; MRT last Mean [1]: 26.7 h; Tmax Median [1]: 24.0 h |
| CCOC(CC)OC(CN(Cc1ccc(-c2ccccn2)cc1)NC(=O)C(NC(=O)OC)C(C)(C)C)C(Cc1ccccc1)NC(=O)C(NC(=O)OCCOCCOCCOCCOCCOCCOC)C(C)(C)C (mixture of isomers) [ATV-1-Ethoxy propoxy-mPEG6, atazanavir-1-ethoxypropoxy-mPEG6] | 185 ng·h/mL | 83.0 ng/mL | 5.16 h | 0.750 h | – |
| COCCOCCOCCOCCOCCOCCOC(=O)NC(C(=O)NC(Cc1ccccc1)C(CN(Cc1ccc(-c2ccccn2)cc1)NC(=O)C(NC(=O)OC)C(C)(C)C)OC(C)=O)C(C)(C)C (stereo not shown) [Acetyl-mPEG6-Atazanavir, O-Acetyl-mPEG6-Atazanavir] | 150 ng·h/mL | 10.3 ng/mL | 13.8 h | 6.00 h | – |
| CCOCO[C@@H](CN(Cc1ccc(-c2ccccn2)cc1)NC(=O)[C@@H](NC(=O)OC)C(C)(C)C)[C@H](Cc1ccccc1)NC(=O)[C@@H](NC(=O)OCCOCCOCCOCCOCCOC)C(C)(C)C [Methyl ethyl ether mPEG5-ATV, mPEG5-Atazanavir Methyl Ethyl Ether] | – | – | – | – | C24 Mean [1]: 2.7; AUCall Mean [1]: 489 ng·h/mL; Cmax Mean [1]: 95.1 ng/mL; MRT last Mean [1]: 6.19 h; Tmax Median [1]: 1.00 h |
| CCC(=O)OC(CN(Cc1ccc(-c2ccccn2)cc1)NC(=O)C(NC(=O)OC)C(C)(C)C)C(Cc1ccccc1)NC(=O)C(NC(=O)OCCOCCOCCOC)C(C)(C)C (stereo not shown) [C2H5CO-mPEG3-ATV, mPEG3-Atazanavir Propionate] | – | – | – | – | AUCall Mean [3]: 59.6 ng·h/mL; Cmax Mean [3]: 17.8 ng/mL; MRT last Mean [3]: 2.44 h; Tmax* Median [3]: 0.500 h |
| CCCCC(=O)OC(CN(Cc1ccc(-c2ccccn2)cc1)NC(=O)C(NC(=O)OC)C(C)(C)C)C(Cc1ccccc1)NC(=O)C(NC(=O)OCCOCCOCCOC)C(C)(C)C (stereo not shown) [C4H9CO-mPEG3-ATV, C4H9CO-mPEG3-atazanavir] | – | – | – | – | AUCall Mean [3]: 40.1 ng·h/mL; Cmax Mean [3]: 7.42 ng/mL; MRT last Mean [3]: 3.00 h; Tmax* Median [3]: 1.25 h |
